Data from US12077503B2, “Substituted cyclic amides and their use as herbicides” (FMC CORPORATION, priority 2015, dated 2024).

Columns and labels:
Assay type in all cases: in vivo
[1] = system: giant foxtail (Setaria faberi); assay: Test G Pre-Emergence Protocol; conditions: Setaria faberi, pre-emergence, 312 h, evaluated after 13 days; for pest or weed control at 15.625 g/ha: 15.625 g ai/ha; for pest or weed control at 15.625 g/ha / pest or weed control at 250 g/ha: read-out: Foxtail, Giant damage rating (100=total damage to plant; 0=no damage to plant); for pest or weed control at 62.5 g/ha: 62.5 g ai/ha, 100=total damage to plant, 0=no damage to plant, read-out: plant damage rating, Foxtail, Giant; for pest or weed control at 250 g/ha: 250 g ai/ha
Method in brief: (§1)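 Herbicidal effect was rated 13 days post-application on a scale where 100 equals total damage. Spraying took place the day after sowing, using 15.625, 62.5 or 250 g/ha of compound in a 50:50 acetone/water solution with 0.5% Tween 20.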

[2] = system: redroot pigweed (Amaranthus retroflexus); assay: Test G Pre-Emergence Protocol; conditions: Amaranthus retroflexus, pre-emergence, 312 h, evaluated after 13 days; for pest or weed control at 15.625 g/ha: 15.625 g ai/ha; for pest or weed control at 15.625 g/ha / pest or weed control at 250 g/ha: read-out: Pigweed, Redroot damage rating (100=total damage to plant; 0=no damage to plant); for pest or weed control at 62.5 g/ha: 62.5 g ai/ha, 100=total damage to plant, 0=no damage to plant, read-out: plant damage rating, Pigweed, Redroot; for pest or weed control at 250 g/ha: 250 g ai/ha
Method in brief: as §1

corn (Zea mays) [3] = assay: Test G Pre-Emergence Protocol; conditions: Zea mays, pre-emergence, 312 h, evaluated after 13 days; for plant injury at 15.625 g/ha: 15.625 g ai/ha; for plant injury at 15.625 g/ha / plant injury at 250 g/ha: read-out: Corn damage rating (100=total damage to plant; 0=no damage to plant); for plant injury at 62.5 g/ha: 62.5 g ai/ha, 100=total damage to plant, 0=no damage to plant, read-out: plant damage rating, Corn; for plant injury at 250 g/ha: 250 g ai/ha
Method in brief: as §1

[4] = system: barnyardgrass (Echinochloa crus-galli); assay: Test G Pre-Emergence Protocol; conditions: Echinochloa crus-galli, pre-emergence, 312 h, evaluated after 13 days; for pest or weed control at 15.625 g/ha: 15.625 g ai/ha, read-out: Barnyard grass damage rating (100=total damage to plant; 0=no damage to plant); for pest or weed control at 62.5 g/ha: 62.5 g ai/ha, 100=total damage to plant, 0=no damage to plant, read-out: plant damage rating, Barnyardgrass; for pest or weed control at 250 g/ha: 250 g ai/ha, read-out: Barnyardgrass damage rating (100=total damage to plant; 0=no damage to plant)
Method in brief: as §1

[5] = system: velvetleaf (Abutilon theophrasti); assay: Test G Pre-Emergence Protocol; conditions: Abutilon theophrasti, pre-emergence, 312 h, evaluated after 13 days; for pest or weed control at 15.625 g/ha: 15.625 g ai/ha; for pest or weed control at 15.625 g/ha / pest or weed control at 250 g/ha: read-out: Velvetleaf damage rating (100=total damage to plant; 0=no damage to plant); for pest or weed control at 62.5 g/ha: 62.5 g ai/ha, 100=total damage to plant, 0=no damage to plant, read-out: plant damage rating, Velvetleaf; for pest or weed control at 250 g/ha: 250 g ai/ha
Method in brief: as §1

[6] = system: ivy-leaved morning glory (Ipomoea hederacea); assay: Test G Pre-Emergence Protocol; conditions: Ipomoea, pre-emergence, 312 h, evaluated after 13 days; for pest or weed control at 15.625 g/ha: 15.625 g ai/ha, read-out: Morning-glory, Ivy-leaved damage rating (100=total damage to plant; 0=no damage to plant); for pest or weed control at 62.5 g/ha: 62.5 g ai/ha, 100=total damage to plant, 0=no damage to plant, read-out: plant damage rating, Morningglory, Ivy-leaved; for pest or weed control at 250 g/ha: 250 g ai/ha, read-out: Morningglory, Ivy-leaved damage rating (100=total damage to plant; 0=no damage to plant)
Method in brief: as §1

[7] = system: giant foxtail (Setaria faberi); assay: Test G Post-Emergence Protocol; conditions: Setaria faberi, post-emergence, 312 h; for pest or weed control at 15.625 g/ha: 15.625 g ai/ha, evaluated after 13 days (100=total damage to plant; 0=no damage to plant), read-out: Foxtail, Giant damage rating; for pest or weed control at 62.5 g/ha: 62.5 g ai/ha, read-out: Foxtail, Giant damage rating (100=total damage to plant; 0=no damage to plant); for pest or weed control at 62.5 g/ha / pest or weed control at 250 g/ha: evaluated after 13 days; for pest or weed control at 250 g/ha: 250 g ai/ha, read-out: damage to plant, Foxtail, Giant (100=total damage to plant; 0=no damage to plant)
Method in brief: (§2)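 A glasshouse post-emergence test: 8-day-old plants sprayed at 15.625, 62.5 or 250 g/ha, then grown at 24/16 °C day/night with 14 h light and 65% humidity. Damage rated 13 days later, 0–100.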

[8] = system: redroot pigweed (Amaranthus retroflexus); assay: Test G Post-Emergence Protocol; conditions: Amaranthus retroflexus, post-emergence, 312 h; for pest or weed control at 15.625 g/ha: 15.625 g ai/ha, evaluated after 13 days (100=total damage to plant; 0=no damage to plant), read-out: Pigweed, Redroot damage rating; for pest or weed control at 62.5 g/ha: 62.5 g ai/ha, read-out: Pigweed, Redroot damage rating (100=total damage to plant; 0=no damage to plant); for pest or weed control at 62.5 g/ha / pest or weed control at 250 g/ha: evaluated after 13 days; for pest or weed control at 250 g/ha: 250 g ai/ha, read-out: damage to plant, Pigweed, Redroot (100=total damage to plant; 0=no damage to plant)
Method in brief: as §2

corn (Zea mays) [9] = assay: Test G Post-Emergence Protocol; conditions: Zea mays, post-emergence, 312 h; for plant injury at 15.625 g/ha: 15.625 g ai/ha, evaluated after 13 days (100=total damage to plant; 0=no damage to plant), read-out: Corn damage rating; for plant injury at 62.5 g/ha: 62.5 g ai/ha, read-out: Corn damage rating (100=total damage to plant; 0=no damage to plant); for plant injury at 62.5 g/ha / plant injury at 250 g/ha: evaluated after 13 days; for plant injury at 250 g/ha: 250 g ai/ha, read-out: damage to plant, Corn (100=total damage to plant; 0=no damage to plant)
Method in brief: as §2

[10] = system: barnyardgrass (Echinochloa crus-galli); assay: Test G Post-Emergence Protocol; conditions: Echinochloa crus-galli, post-emergence, 312 h; for pest or weed control at 15.625 g/ha: 15.625 g ai/ha, evaluated after 13 days (100=total damage to plant; 0=no damage to plant), read-out: Barnyardgrass damage rating; for pest or weed control at 62.5 g/ha: 62.5 g ai/ha, read-out: Barnyardgrass damage rating (100=total damage to plant; 0=no damage to plant); for pest or weed control at 62.5 g/ha / pest or weed control at 250 g/ha: evaluated after 13 days; for pest or weed control at 250 g/ha: 250 g ai/ha, read-out: damage to plant, Barnyardgrass (100=total damage to plant; 0=no damage to plant)
Method in brief: as §2

[11] = system: velvetleaf (Abutilon theophrasti); assay: Test G Post-Emergence Protocol; conditions: Abutilon theophrasti, post-emergence, 312 h; for pest or weed control at 15.625 g/ha: 15.625 g ai/ha, evaluated after 13 days (100=total damage to plant; 0=no damage to plant), read-out: Velvetleaf damage rating; for pest or weed control at 62.5 g/ha: 62.5 g ai/ha, read-out: Velvetleaf damage rating (100=total damage to plant; 0=no damage to plant); for pest or weed control at 62.5 g/ha / pest or weed control at 250 g/ha: evaluated after 13 days; for pest or weed control at 250 g/ha: 250 g ai/ha, read-out: damage to plant, Velvetleaf (100=total damage to plant; 0=no damage to plant)
Method in brief: as §2

[12] = system: ivy-leaved morning glory (Ipomoea hederacea); assay: Test G Post-Emergence Protocol; conditions: Ipomoea, post-emergence, 312 h; for pest or weed control at 15.625 g/ha: 15.625 g ai/ha, evaluated after 13 days (100=total damage to plant; 0=no damage to plant), read-out: Morningglory, Ivy-leaved damage rating; for pest or weed control at 62.5 g/ha: 62.5 g ai/ha, read-out: Morningglory, Ivy-leaved damage rating (100=total damage to plant; 0=no damage to plant); for pest or weed control at 62.5 g/ha / pest or weed control at 250 g/ha: evaluated after 13 days; for pest or weed control at 250 g/ha: 250 g ai/ha, read-out: damage to plant, Morningglory, Ivy-leaved (100=total damage to plant; 0=no damage to plant)
Method in brief: as §2

SMILES | pest or weed control at 15.625 g/ha [1] [%] | pest or weed control at 62.5 g/ha [1] [%] | pest or weed control at 250 g/ha [1] [%] | pest or weed control at 15.625 g/ha [2] [%] | pest or weed control at 62.5 g/ha [2] [%] | pest or weed control at 250 g/ha [2] [%] | plant injury at 15.625 g/ha (corn (Zea mays) [3]) [%] | plant injury at 62.5 g/ha (corn (Zea mays) [3]) [%] | plant injury at 250 g/ha (corn (Zea mays) [3]) [%] | pest or weed control at 15.625 g/ha [4] [%] | pest or weed control at 62.5 g/ha [4] [%] | pest or weed control at 250 g/ha [4] [%] | pest or weed control at 15.625 g/ha [5] [%] | pest or weed control at 62.5 g/ha [5] [%] | pest or weed control at 250 g/ha [5] [%] | pest or weed control at 15.625 g/ha [6] [%] | pest or weed control at 62.5 g/ha [6] [%] | pest or weed control at 250 g/ha [6] [%] | pest or weed control at 15.625 g/ha [7] [%] | pest or weed control at 62.5 g/ha [7] [%] | also measured
CN1C[C@@H](c2ccc(C(F)(F)F)cc2)[C@H](C(=O)Nc2cccc(C(F)(F)F)n2)C1=O (racemic) [Compound 1563] | 0 | 0 | 0 | 0 | 0 | 0 | 0 | 0 | 0 | 0 | 0 | 0 | 0 | 0 | 0 | 0 | 0 | 0 | 0 | 0 | pest or weed control at 250 g/ha [7]: 0%; pest or weed control at 15.625 g/ha [8]: 0%; pest or weed control at 62.5 g/ha [8]: 0%; pest or weed control at 250 g/ha [8]: 0%; plant injury at 15.625 g/ha (corn (Zea mays) [9]): 0%; plant injury at 62.5 g/ha (corn (Zea mays) [9]): 0%; plant injury at 250 g/ha (corn (Zea mays) [9]): 0%; pest or weed control at 15.625 g/ha [10]: 0%; pest or weed control at 62.5 g/ha [10]: 0%; pest or weed control at 250 g/ha [10]: 0%; pest or weed control at 15.625 g/ha [11]: 0%; pest or weed control at 62.5 g/ha [11]: 0%; pest or weed control at 250 g/ha [11]: 0%; pest or weed control at 15.625 g/ha [12]: 0%; pest or weed control at 62.5 g/ha [12]: 0%; pest or weed control at 250 g/ha [12]: 0%
CN1C[C@@H](c2ccc(C(F)(F)F)cc2)[C@H](C(=O)Nc2cc(Cl)nc(Cl)c2)C1=O (racemic) [Compound 1519] | 0 | 0 | 0 | 0 | 0 | 0 | 0 | 0 | 0 | 0 | 0 | 0 | 0 | 0 | 0 | 0 | 0 | 0 | 0 | 0 | pest or weed control at 250 g/ha [7]: 0%; pest or weed control at 15.625 g/ha [8]: 0%; pest or weed control at 62.5 g/ha [8]: 0%; pest or weed control at 250 g/ha [8]: 0%; plant injury at 15.625 g/ha (corn (Zea mays) [9]): 10%; plant injury at 62.5 g/ha (corn (Zea mays) [9]): 10%; plant injury at 250 g/ha (corn (Zea mays) [9]): 0%; pest or weed control at 15.625 g/ha [10]: 0%; pest or weed control at 62.5 g/ha [10]: 0%; pest or weed control at 250 g/ha [10]: 0%; pest or weed control at 15.625 g/ha [11]: 0%; pest or weed control at 62.5 g/ha [11]: 0%; pest or weed control at 250 g/ha [11]: 0%; pest or weed control at 15.625 g/ha [12]: 0%; pest or weed control at 62.5 g/ha [12]: 0%; pest or weed control at 250 g/ha [12]: 0%
